Test results reported in patent US20220079915A1, “IMMUNOSUPPRESSIVE PHARMACEUTICAL COMPOSITION AND APPLICATION THEREOF” (Shanghai Archeus Biotech Co., Ltd., priority 2018, published 2022).

Key:
[1] = tested on: THP-1 cells; assay: THP-1 cell viability assay (MTT); assay type: cell-based, human; details: groups with or without the compound; FIG. 3
Description: 1) Recoveried and expanded THP-1 cells in a T75 culture flask. The growth medium was 10 milliliters of 10% fetal bovine serun/RPMI1640 (already containing 2 mM glutamine)/1% double antibiotics in each flask. […]

[2] = tested on: mouse spleen Naïve CD4+ T cells; assay: Compound cytotoxicity detection, lactate dehydrogenase (LDH) release; assay type: cell-based; details: 4 hours incubation; FIG. 9
Description: 1) Separated fresh spleens from adult C57BL/6 female mice (8-12 weeks old), and ground and filtered through a […] nylon cell strainer to obtain a single cell suspension in pre-cooled PBS; 2) Seeded primary CD4+ T cells in 96-well plate with a density of 1×10^5/90 μL. The medium was 1640 medium (serum-free); 3) Added the serially diluted compounds formulated in a volume of 10 μL to designated wells; 4) Incubated the cells for 4 hours at 37 degrees Celsius and 5% CO2; 5) Detected lactate dehydrogenase (LDH) release according to CytoTox-one Homogeneous Membrane Integrity Assay Kit instructions.

[3] = tested on: mouse psoriasis model induced by Imiquimod; assay: Mouse psoriasis model induced with imiquimod; assay type: in vivo; details: for relieving of inflammatory thickening of the model right ear: end point of 7-day administration
Description: Animal strain: 28 male BALB/c mice, 6-8 weeks old, SPF environment, 12 hours light and dark cycle, 24-26 degrees Celsius. Blank group: no treatment, n=3; […] High-dose compound test group: 3.5 mg/kg drug intraperitoneal injection+5% imiquimod ointment, n=5; Low-dose compound test group: 0.8 mg/kg drug intraperitoneal injection+5% imiquimod ointment, n=5; Combined drugs test group: 0.8 mg/kg drug intraperitoneal injection+0.0025% PGE2 (administered epidermally in 75% ethanol)+5% imiquimod ointment, n=5; Day 0: anesthetized the mouse, shaved the back with an area about 2*3 cm; Day1-7: every other day, measured the mouse body weight, left and right ear thickness, and observed the skin to obtain a score; Day7: killed the mouse, sampled the back skin and fixed in 4% PFA solution for H&E staining; Model Group Induced with Imiquimod: Day 0: anesthetized the mouse, shaved the back with an area about 2*3 cm; Day1-7: every other day, measured the mouse body weight, left and right ear thickness, and observed the skin to obtain a score; […] Massaged moderately against the direction of the hair to help absorption; Day1-7: […] Massaged moderately against the direction of the hair to help absorption; Day7: killed the mouse, sampled the back skin and fixed in 4% PFA solution for H&E staining; Day 0: anesthetized the mouse, shaved the back with an area about 2*3 cm; Day1-7: every other day, measured the mouse body weight, left and right ear thickness, and observed the skin to obtain a score; […] Day1-7: then injected intraperitoneally 3.5 mg/kg in 200 μL sterile DPBS; Day1-7: then applied 62.5 mg of imiquimod ointment on the shaved area on the back of each mouse, applied 250 μg of imiquimod ointment on the inside and outside of the right ear, and massaged moderately against the direction of hair to help absorption; Day7: killed the mouse, sampled the back skin and fixed in 4% PFA solution for H&E staining; Day 0: anesthetized the mouse, shaved the back with an area about 2*3 cm; Day1-7: every other day, measured the mouse body weight, left and right ear thickness, and observed the skin to obtain a score; […] Day1-7: then injected intraperitoneally 0.8 mg/kg in 200 μL sterile DPBS; Day1-7: then applied 62.5 mg of imiquimod ointment on the shaved area on the back of each mouse, applied 250 μg of imiquimod ointment on the inside and outside of the right ear, and massaged moderately against the direction of hair to help absorption; Day7: killed the mouse, sampled the back skin and fixed in 4% PFA solution for H&E staining; Group Treated with Compound in Combination with PGE2: Day 0: anesthetized the mouse, shaved the back with an area about 2*3 cm; Day1-7: every other day, measured the mouse body weight, left and right ear thickness, and observed the skin to obtain a score; Day1-7: […] Day-7: then injected intraperitoneally 0.8 mg/kg in 200 μL sterile DPBS; Day1-7: one hour after PGE2 administration, applied 62.5 mg of imiquimod ointment on the shaved area on the back of each mouse, and applied 250 μg of imiquimod ointment on the inside and outside of the right ear. […] The area was fixed in the disease model and was not considered, and the other three aspects were quantified as follows: 0=asymptomatic, 1=mild, 2=moderate, 3=significant, 4=very significant; Changes of the thickening of the ear; Body weight; Skin histological changes (H&E staining).

[4] = high-dose group 3.5 mg/kg intraperitoneal
[5] = low-dose group 0.8 mg/kg intraperitoneal

Compound: C=C[C@@]1(C)CC(=O)C2(O)[C@@]3(C)C(O)CCC(C)(C)C3[C@H](OC(=O)CCN(C)C)[C@H](OC(C)=O)[C@@]2(C)O1.Cl (stereo partly shown) [6-[3-(dimethylamino)propionyl]forskolin hydrochloride]
- cell viability [1]: no significant difference
- toxicity to CD4+ T cells (lactate dehydrogenase release) [2]: not significantly toxic
- thickness of epidermis and stratum corneum of back skin (H&E staining) ([3]; day 7, compared with the model group, FIG. 20): different degrees of thickness reduction
- day of administration on which disease alleviation showed (back skin psoriasis-like index score) [3, 4]: 3 days
- relieving of inflammatory thickening of the model right ear [3, 4]: 39%
- day of administration on which the effect began (back skin psoriasis-like index score) [3, 5]: 5 days
- relieving of inflammatory thickening of the model right ear [3, 5]: 30%
